For series [1] the following is noted: 101.3 kPa, Liquid, Pycnometric method.
Series [2] in a line: xn = mol fraction of the nth substance listed. The following applies: 101.3 kPa, Liquid, Pycnometric method, x1 = 1.

± gives the expanded uncertainty stated by the source.

In general, mass density refers to mass per unit of volume. On to `COCCO` [2-methoxyethan-1-ol], for which the mass density stood at 966.52 ± 2.6 kg/m3 in series [1] (291.15 K); 964.88 ± 2.6 kg/m3 in series [1] (293.15 K); 960.29 ± 2.6 kg/m3 in series [1] (298.15 K); 955.76 ± 2.6 kg/m3 in series [1] (303.15 K); 951.1 ± 2.6 kg/m3 in series [1] (308.15 K).

Consider `COCCO` [2-methoxyethan-1-ol] + CCCNCCC, for which the mass density in series [2] (291.15 K) is reported as 966.52 ± 2.6 kg/m3; in series [2] (293.15 K), 964.88 ± 2.6 kg/m3; in series [2] (298.15 K), 960.29 ± 2.6 kg/m3; in series [2] (303.15 K) it was 955.76 ± 2.6 kg/m3; in series [2] (308.15 K), 951.1 ± 2.6 kg/m3.

Regarding `CCCNCCC` [dipropylamine], the mass density was 738.47 ± 2 kg/m3 in series [1] (291.15 K); 737.2 ± 2 kg/m3 in series [1] (293.15 K); 732.56 ± 2 kg/m3 in series [1] (298.15 K); 728.2 ± 2 kg/m3 in series [1] (303.15 K); 723.64 ± 2 kg/m3 in series [1] (308.15 K).

The record behind these values is the NIST ThermoML archive (doi:10.1021/je040006u).
